Test [1] addresses KRAS (G12C)::SOS1 (Homo sapiens (Human), UniProt P01116, C118S/C51S/C80L/G12C). The experiment in a line: KRAS::SOS1 AlphaScreen binding assay, KRAS G12C. Put shortly: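 AlphaScreen measurement of compound disruption of biotinylated, GDP-loaded KRAS 1-169 (10 nM; G12C 7.5 nM) binding to GST-SOS1 564-1049 (5 nM with G12D/G12C, 10 nM otherwise), with 10 μM GDP in PBS/0.1% BSA/0.05% Tween 20. Timing was 30 min compound preincubation, then 60 min with beads at room temperature; top concentration 100 μM, 4-parameter IC50.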
(In general: Alpha assays give light when donor and acceptor beads are brought close together.)

Test [2] concerns KRAS G12V-dependent Ba/F3 cells. The experiment in a line: Ba/F3 proliferation assay, KRAS G12V.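 Also: proliferation IC50 in KRAS G12V-dependent Ba/F3 cells read by AlamarBlue.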 The format is cell-based. The conditions noted are these: Mus musculus, BaF3, 72 h, AlamarBlue. The method in brief: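 Cells: murine Ba/F3 transduced with mutant KRAS by retrovirus, selected with 1 μg/mL puromycin, then weaned off IL-3. Compound exposure in duplicate, followed by AlamarBlue viability staining and curve fitting.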

Test [3] concerns AsPC-1 cells. Kind of test: AsPC-1 CTG proliferation assay (120 h) (pancreatic cancer, G12D). The conditions noted are these: Homo sapiens, ASPC1. The format is cell-based. Put shortly: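 CellTiter-Glo luminescence, normalised to DMSO wells, measured viability after 120 h compound exposure. Cells were AsPC-1 pancreatic cancer (G12D) plated at 2000 per well in RPMI/10% FCS the day before dosing. IC50 derived by four-parameter regression.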

In general, IC50 refers to the concentration that gives 50% inhibition. Lower therefore signals greater potency.

KRAS (G12C)::SOS1, sequence (P01116 other isoform, or with tags, fused parts or gaps G12C/C51S/C80L/C118S): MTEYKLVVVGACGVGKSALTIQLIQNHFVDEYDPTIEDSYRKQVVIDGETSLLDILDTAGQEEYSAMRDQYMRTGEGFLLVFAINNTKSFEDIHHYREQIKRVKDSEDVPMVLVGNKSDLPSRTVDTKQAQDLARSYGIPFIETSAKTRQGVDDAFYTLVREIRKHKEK

For `C[C@H](Oc1cc(-n2ccc(C(=O)N(C)C3COC3)n2)nc(-c2onc3c2CCC[C@@]32CCCc3sc(N)c(C#N)c32)n1)[C@@H]1CCCN1C` [I-60], the IC50 turned out to be 1 nM in test [1], 4 nM in test [2] and 779 nM in test [3].

As to `C[C@H](Oc1cc(-c2ccc(N)nc2)nc(-c2onc3c2CCC[C@@]32CCCc3sc(N)c(C#N)c32)n1)[C@@H]1CCCN1C` [I-25], the concentration for half-maximal inhibition (IC50) was determined as 2 nM in test [1], 57 nM in test [2] and 3450 nM in test [3].

With `C[C@H](Oc1cc(N2CCN(C)C3(CC3)C2)nc(-c2onc3c2CCC[C@@]32CCCc3sc(N)c(C#N)c32)n1)[C@@H]1C[C@@H](F)CN1C` [I-39], the IC50 in test [1] is 10 nM; in test [2], 895 nM; in test [3] it was 149 nM.

`C[C@@H]1CN(c2cc(O[C@@H](C)[C@@H]3C[C@@H](F)CN3C)nc(-c3noc4c3CCC[C@@]43CCCc4sc(N)c(C#N)c43)n2)CC2(CC2)N1` [II-17]: the IC50 in test [1] was 3 nM; in test [2] it was 422 nM; in test [3], 251 nM.

For the molecule `C[C@H](Oc1cc(N2CCN(C)C3(CCC3)C2)nc(-c2onc3c2CCC[C@@]32CCCc3sc(N)c(C#N)c32)n1)[C@@H]1CCCN1C` [I-44], the IC50 in test [1] stood at 13 nM; in test [2], 1050 nM; in test [3], 980 nM.

Take `C[C@H](Oc1cc(N2CC[C@@H](N(C)C)C2)nc(-c2noc3c2CCC[C@@]32CCCc3sc(N)c(C#N)c32)n1)[C@@H]1CCCN1C` [II-47]: the IC50 in test [1] is 4 nM; in test [2] it was 164 nM; in test [3], 991 nM.

`C[C@H](Oc1cc(N2CC(N(C)C)C2)nc(-c2noc3c2CCC[C@@]32CCCc3sc(N)c(C#N)c32)n1)[C@@H]1CCCN1C` [II-7]: the values for the IC50 in test [1], in test [2] and in test [3] were 5 nM, 196 nM and 1640 nM, respectively.

As to `CNC(=O)c1ccn(-c2cc(O[C@@H](C)[C@@H]3CCCN3C)nc(-c3noc4c3CCC[C@@]43CCCc4sc(N)c(C#N)c43)n2)n1` [II-20], the IC50 in test [1] worked out at 1 nM; in test [2], 2 nM; in test [3], 1030 nM.

Values taken from US20240174690A1, “ANNULATED 2-AMINO-3-CYANO THIOPHENES AND DERIVATIVES FOR THE TREATMENT OF CANCER” (BOEHRINGER INGELHEIM INTERNATIONAL GMBH, priority 2021, published 2024).
